Data published in paper PMC4230938, “A High-Yield Co-Expression System for the Purification of an Intact Drs2p-Cdc50p Lipid Flippase Complex, Critically Dependent on and Stabilized by Phosphatidylinositol-4-Phosphate” (PLoS ONE, 2014).
Values belong to the molecule of their own block, whether it stands above or below them.

Experiments:
Drs2p-Cdc50p complex [1] = molecular target: T1, Drs2p-Cdc50p complex (Saccharomyces cerevisiae, UniProt P39524); assay: ATPase activity of complex purified without PS; assay type: biochemical; settings: lipid stimulation at 0.05 mg/mL; 0.025 mg/mL PI4P, 1 mM Mg-ATP, 1 mg/mL DDM, pH 7, 30 °C
T1 construct: gene DRS2; full-length, co-expressed in yeast W303.1b/GAL4; N-terminal Bad tag (Drs2p) and His10 tag (Cdc50p) cut by TEV, Gly plus four-Gly linker left; 154,050 Da Drs2p, 45,136 Da unglycosylated Cdc50p; glycosylated; 1:1 complex in DDM; with Cell division control protein 50
T1 sequence (P39524 1-1355): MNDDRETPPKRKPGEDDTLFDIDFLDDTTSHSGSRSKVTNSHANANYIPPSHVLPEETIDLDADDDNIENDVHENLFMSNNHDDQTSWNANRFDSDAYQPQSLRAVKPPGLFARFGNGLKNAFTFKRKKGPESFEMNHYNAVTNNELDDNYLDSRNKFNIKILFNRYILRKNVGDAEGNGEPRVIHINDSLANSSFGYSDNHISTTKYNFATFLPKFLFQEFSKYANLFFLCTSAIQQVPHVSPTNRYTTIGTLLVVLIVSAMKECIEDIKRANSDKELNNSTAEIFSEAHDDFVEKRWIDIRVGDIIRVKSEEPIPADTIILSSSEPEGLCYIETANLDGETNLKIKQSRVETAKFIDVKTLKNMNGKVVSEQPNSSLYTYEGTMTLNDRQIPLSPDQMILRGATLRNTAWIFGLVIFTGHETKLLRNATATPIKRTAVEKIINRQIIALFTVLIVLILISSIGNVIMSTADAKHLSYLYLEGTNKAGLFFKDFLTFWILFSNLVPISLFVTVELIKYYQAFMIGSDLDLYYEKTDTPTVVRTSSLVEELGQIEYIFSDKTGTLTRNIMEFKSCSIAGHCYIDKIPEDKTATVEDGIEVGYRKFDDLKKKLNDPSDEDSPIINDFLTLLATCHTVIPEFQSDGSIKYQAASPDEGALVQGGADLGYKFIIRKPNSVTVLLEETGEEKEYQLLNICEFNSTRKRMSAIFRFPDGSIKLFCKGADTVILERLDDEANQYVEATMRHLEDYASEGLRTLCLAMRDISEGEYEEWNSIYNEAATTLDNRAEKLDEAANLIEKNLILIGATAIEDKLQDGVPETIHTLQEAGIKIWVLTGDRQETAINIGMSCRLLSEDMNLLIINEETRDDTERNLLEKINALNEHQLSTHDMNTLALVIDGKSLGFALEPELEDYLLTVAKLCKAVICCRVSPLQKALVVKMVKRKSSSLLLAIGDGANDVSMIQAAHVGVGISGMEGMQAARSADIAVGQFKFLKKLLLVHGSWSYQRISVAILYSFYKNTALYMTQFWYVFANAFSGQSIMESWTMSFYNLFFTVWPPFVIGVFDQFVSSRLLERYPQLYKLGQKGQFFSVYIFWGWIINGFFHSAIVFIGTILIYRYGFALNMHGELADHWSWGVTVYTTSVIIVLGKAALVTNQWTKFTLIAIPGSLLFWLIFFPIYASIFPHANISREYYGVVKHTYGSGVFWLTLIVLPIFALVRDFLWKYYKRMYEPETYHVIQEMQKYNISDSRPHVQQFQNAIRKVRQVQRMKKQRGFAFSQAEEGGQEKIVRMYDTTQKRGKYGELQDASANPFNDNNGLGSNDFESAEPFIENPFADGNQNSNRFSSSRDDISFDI
T1 sequence (P25656 1-391 partner): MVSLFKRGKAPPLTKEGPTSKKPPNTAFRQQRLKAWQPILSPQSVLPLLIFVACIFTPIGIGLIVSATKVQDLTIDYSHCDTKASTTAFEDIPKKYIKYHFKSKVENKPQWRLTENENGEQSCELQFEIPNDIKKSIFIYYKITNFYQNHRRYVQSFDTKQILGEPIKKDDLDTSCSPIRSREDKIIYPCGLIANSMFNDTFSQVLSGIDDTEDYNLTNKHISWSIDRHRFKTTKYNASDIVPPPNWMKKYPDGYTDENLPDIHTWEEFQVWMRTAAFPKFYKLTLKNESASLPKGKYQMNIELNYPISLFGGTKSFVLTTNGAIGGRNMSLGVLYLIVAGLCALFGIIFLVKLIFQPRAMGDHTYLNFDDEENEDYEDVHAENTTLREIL

Drs2p-Cdc50p complex [2] = molecular target: T1, Drs2p-Cdc50p complex; assay: ATPase activity, colorimetric Pi release; assay type: biochemical; settings: transported lipid stimulating ATPase; 0.025 mg/mL PI4P, 1 mM Mg-ATP, 1 mg/mL DDM, pH 7, 30 °C; residual PS from purification present; read-out: [PS]1/2
Drs2p-Cdc50p complex [3] = molecular target: T1, Drs2p-Cdc50p complex; assay: ATPase activity, colorimetric Pi release; assay type: biochemical; settings: inhibitor; 1 h pre-incubation on ice; 1 mM ATP, 0.025 mg/mL PI4P, 0.05 mg/mL POPS, 1 mg/mL DDM, pH 7, 30 °C; printed only as a range
[4] = molecular target: T2, Drs2p, tag-free after TEV cleavage (S. cerevisiae, UniProt P39524 1-1355); assay: in-gel fluorescence of haloalkane-modified Trp residues after SDS-PAGE; band intensities of Drs2p and Cdc50p in the streptavidin-purified complex, 4-20% gradient gel; settings: both partners purified
T2 construct: Drs2p, yeast P4-ATPase; theoretical mass of the recombinant protein 154,050 Da; also called purified Drs2p; source: S. cerevisiae W303.1b/GAL4, co-expressed with Cdc50p, purified (streptavidin-Sepharose, TEV elution, Ni2+-TED; SEC); not shown: Bad (Biotin Acceptor Domain), N-terminal, cleaved
T2 sequence (looked up): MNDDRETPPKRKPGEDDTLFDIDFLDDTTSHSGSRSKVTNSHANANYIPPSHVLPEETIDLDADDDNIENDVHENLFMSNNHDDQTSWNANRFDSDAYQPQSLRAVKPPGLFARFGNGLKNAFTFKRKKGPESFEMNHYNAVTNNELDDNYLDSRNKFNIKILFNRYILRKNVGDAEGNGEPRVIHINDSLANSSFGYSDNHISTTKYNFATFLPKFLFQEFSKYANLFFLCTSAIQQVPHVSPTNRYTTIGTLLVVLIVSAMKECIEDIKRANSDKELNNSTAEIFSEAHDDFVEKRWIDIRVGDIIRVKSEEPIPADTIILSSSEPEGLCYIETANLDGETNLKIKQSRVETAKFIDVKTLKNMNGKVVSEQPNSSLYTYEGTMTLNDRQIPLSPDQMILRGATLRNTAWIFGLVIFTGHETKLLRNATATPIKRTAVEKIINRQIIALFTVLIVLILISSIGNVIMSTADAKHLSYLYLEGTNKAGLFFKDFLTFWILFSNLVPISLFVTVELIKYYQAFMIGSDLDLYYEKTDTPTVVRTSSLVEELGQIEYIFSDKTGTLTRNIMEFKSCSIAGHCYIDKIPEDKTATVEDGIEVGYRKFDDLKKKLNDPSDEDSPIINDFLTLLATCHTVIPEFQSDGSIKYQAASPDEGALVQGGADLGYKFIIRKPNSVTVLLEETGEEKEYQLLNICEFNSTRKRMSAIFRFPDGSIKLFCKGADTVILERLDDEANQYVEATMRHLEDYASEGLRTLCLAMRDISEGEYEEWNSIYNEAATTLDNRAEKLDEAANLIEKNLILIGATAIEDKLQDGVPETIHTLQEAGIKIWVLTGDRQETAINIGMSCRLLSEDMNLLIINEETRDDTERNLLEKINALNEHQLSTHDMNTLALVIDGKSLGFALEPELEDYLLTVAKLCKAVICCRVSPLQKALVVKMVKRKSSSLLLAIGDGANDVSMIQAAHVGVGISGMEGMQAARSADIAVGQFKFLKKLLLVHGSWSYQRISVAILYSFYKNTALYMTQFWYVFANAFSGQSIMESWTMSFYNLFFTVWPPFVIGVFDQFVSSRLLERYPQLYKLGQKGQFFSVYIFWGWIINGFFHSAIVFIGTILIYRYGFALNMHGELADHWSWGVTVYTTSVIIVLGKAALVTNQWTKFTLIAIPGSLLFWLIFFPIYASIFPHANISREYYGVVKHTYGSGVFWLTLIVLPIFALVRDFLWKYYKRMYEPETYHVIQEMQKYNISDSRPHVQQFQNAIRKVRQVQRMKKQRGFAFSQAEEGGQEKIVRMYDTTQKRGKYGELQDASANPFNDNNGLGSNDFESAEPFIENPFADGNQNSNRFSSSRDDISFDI

[5] = substrate: Nc1ncnc2c1ncn2[C@@H]1O[C@H](COP(=O)(O)OP(=O)(O)OP(=O)(O)O)[C@@H](O)[C@H]1O; assay: ATPase activity, colorimetric Pi release; assay type: biochemical, Saccharomyces cerevisiae; settings: 0.025 mg/mL PI4P, 0.05 mg/mL POPS, 1 mg/mL DDM, ATP-regenerating system, pH 7, 30 °C

Molecule: CCCCCCCCCCCCCC(=O)OC[C@H](COP(=O)(O)OC[C@H](N)C(=O)O)OC(=O)CCCCCCCCCCCCC [DMPS, 1,2-dimyristoyl-sn-glycero-3-phospho-L-serine]
- ATPase activity of complex purified without PS (Drs2p-Cdc50p complex [1]): PS had the largest stimulating effect, irrespective of its fatty acyl chain (POPS or DMPS)

Molecule: CCCCCCCC/C=C\CCCCCCCC(=O)O[C@H](COC(=O)CCCCCCCCCCCCCCC)COP(=O)(O)OCCN [POPE, 1-palmitoyl-2-oleoyl-sn-glycero-3-phosphoethanolamine]
- ATPase activity of complex purified without PS (Drs2p-Cdc50p complex [1]): POPC only had a slightly stimulating effect, POPE had a larger one

Molecule: CCCCCCCC/C=C\CCCCCCCC(=O)O[C@H](COC(=O)CCCCCCCCCCCCCCC)COP(=O)(O)OC[C@H](N)C(=O)O [POPS, 1-palmitoyl-2-oleoyl-sn-glycero-3-phospho-L-serine]
- Km (Drs2p-Cdc50p complex [2]): > 26.2 µM

Molecule: [O]=[V]([OH])([OH])[OH] [orthovanadate]
- KI (Drs2p-Cdc50p complex [3]): vanadate had a rather poor KI, in the millimolar range (Figure 7E)

- stoichiometry N [4]: 1 Drs2p:Cdc50p (mol:mol)
B1: Cdc50p, tag-free after TEV cleavage (natural protein, S. cerevisiae, UniProt P25656 1-391, looked up)
chain: MVSLFKRGKAPPLTKEGPTSKKPPNTAFRQQRLKAWQPILSPQSVLPLLIFVACIFTPIGIGLIVSATKVQDLTIDYSHCDTKASTTAFEDIPKKYIKYHFKSKVENKPQWRLTENENGEQSCELQFEIPNDIKKSIFIYYKITNFYQNHRRYVQSFDTKQILGEPIKKDDLDTSCSPIRSREDKIIYPCGLIANSMFNDTFSQVLSGIDDTEDYNLTNKHISWSIDRHRFKTTKYNASDIVPPPNWMKKYPDGYTDENLPDIHTWEEFQVWMRTAAFPKFYKLTLKNESASLPKGKYQMNIELNYPISLFGGTKSFVLTTNGAIGGRNMSLGVLYLIVAGLCALFGIIFLVKLIFQPRAMGDHTYLNFDDEENEDYEDVHAENTTLREIL
modifications: glycosylated
notes: Cdc50p, accessory subunit of Drs2p; recombinant non-glycosylated mass 45,136 Da including the linker glycines; also called glycosylated Cdc50p; source: S. cerevisiae W303.1b/GAL4, co-expressed with Drs2p, purified with it (streptavidin-Sepharose, TEV elution, Ni2+-TED; SEC); not shown: His10, N-terminal, cleaved

B2: Drs2p-Cdc50p complex (Saccharomyces cerevisiae S288C) (protein)
chain: MNDDRETPPKRKPGEDDTLFDIDFLDDTTSHSGSRSKVTNSHANANYIPPSHVLPEETIDLDADDDNIENDVHENLFMSNNHDDQTSWNANRFDSDAYQPQSLRAVKPPGLFARFGNGLKNAFTFKRKKGPESFEMNHYNAVTNNELDDNYLDSRNKFNIKILFNRYILRKNVGDAEGNGEPRVIHINDSLANSSFGYSDNHISTTKYNFATFLPKFLFQEFSKYANLFFLCTSAIQQVPHVSPTNRYTTIGTLLVVLIVSAMKECIEDIKRANSDKELNNSTAEIFSEAHDDFVEKRWIDIRVGDIIRVKSEEPIPADTIILSSSEPEGLCYIETANLDGETNLKIKQSRVETAKFIDVKTLKNMNGKVVSEQPNSSLYTYEGTMTLNDRQIPLSPDQMILRGATLRNTAWIFGLVIFTGHETKLLRNATATPIKRTAVEKIINRQIIALFTVLIVLILISSIGNVIMSTADAKHLSYLYLEGTNKAGLFFKDFLTFWILFSNLVPISLFVTVELIKYYQAFMIGSDLDLYYEKTDTPTVVRTSSLVEELGQIEYIFSDKTGTLTRNIMEFKSCSIAGHCYIDKIPEDKTATVEDGIEVGYRKFDDLKKKLNDPSDEDSPIINDFLTLLATCHTVIPEFQSDGSIKYQAASPDEGALVQGGADLGYKFIIRKPNSVTVLLEETGEEKEYQLLNICEFNSTRKRMSAIFRFPDGSIKLFCKGADTVILERLDDEANQYVEATMRHLEDYASEGLRTLCLAMRDISEGEYEEWNSIYNEAATTLDNRAEKLDEAANLIEKNLILIGATAIEDKLQDGVPETIHTLQEAGIKIWVLTGDRQETAINIGMSCRLLSEDMNLLIINEETRDDTERNLLEKINALNEHQLSTHDMNTLALVIDGKSLGFALEPELEDYLLTVAKLCKAVICCRVSPLQKALVVKMVKRKSSSLLLAIGDGANDVSMIQAAHVGVGISGMEGMQAARSADIAVGQFKFLKKLLLVHGSWSYQRISVAILYSFYKNTALYMTQFWYVFANAFSGQSIMESWTMSFYNLFFTVWPPFVIGVFDQFVSSRLLERYPQLYKLGQKGQFFSVYIFWGWIINGFFHSAIVFIGTILIYRYGFALNMHGELADHWSWGVTVYTTSVIIVLGKAALVTNQWTKFTLIAIPGSLLFWLIFFPIYASIFPHANISREYYGVVKHTYGSGVFWLTLIVLPIFALVRDFLWKYYKRMYEPETYHVIQEMQKYNISDSRPHVQQFQNAIRKVRQVQRMKKQRGFAFSQAEEGGQEKIVRMYDTTQKRGKYGELQDASANPFNDNNGLGSNDFESAEPFIENPFADGNQNSNRFSSSRDDISFDI
notes: full-length, co-expressed in yeast W303.1b/GAL4; N-terminal Bad tag (Drs2p) and His10 tag (Cdc50p) cut by TEV, Gly plus four-Gly linker left; 154,050 Da Drs2p, 45,136 Da unglycosylated Cdc50p; glycosylated; 1:1 complex in DDM; with Cell division control protein 50
- K0.5 [5]: 10 µM
